According to the supplement of paper PMC10307832:

Columns and labels:
Assay in all cases: relative viability (nuclei count vs DMSO), 5 days (fraction); higher = more cells survive
Tipifarnib + Crizotinib = compound: Cn1cncc1[C@@](N)(c1ccc(Cl)cc1)c1ccc2c(c1)c(-c1cccc(Cl)c1)cc(=O)n2C [Tipifarnib] + C[C@@H](Oc1cc(-c2cnn(C3CCNCC3)c2)cnc1N)c1c(Cl)ccc(F)c1Cl [Crizotinib] (partner 1 µM)
Summary of the method: (§1)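 Lung cancer cell lines, seeded in 1536-well plates, were treated the following day by pin tool with a single drug or with five library-drug doses (not always all listed) in √10 steps on top of a fixed anchor-drug dose. Cells were fixed and nuclei stained in one step after 5 days, and nuclei were counted. Relative viability is the nuclei count for treated wells divided by that for vehicle wells, reported as medians of duplicate plates.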

Tipifarnib + Phenformin = compound: Cn1cncc1[C@@](N)(c1ccc(Cl)cc1)c1ccc2c(c1)c(-c1cccc(Cl)c1)cc(=O)n2C [Tipifarnib] + N=C(N)NC(=N)NCCc1ccccc1 [Phenformin] (partner 250 µM)
Summary of the method: as §1

Tipifarnib + OSI-027 = compound: Cn1cncc1[C@@](N)(c1ccc(Cl)cc1)c1ccc2c(c1)c(-c1cccc(Cl)c1)cc(=O)n2C [Tipifarnib] + COc1cccc2cc(-c3nc([C@H]4CC[C@H](C(=O)O)CC4)n4ncnc(N)c34)[nH]c12 [OSI-027] (partner 0.5 µM)
Summary of the method: as §1

Tipifarnib + Trametinib = compound: Cn1cncc1[C@@](N)(c1ccc(Cl)cc1)c1ccc2c(c1)c(-c1cccc(Cl)c1)cc(=O)n2C [Tipifarnib] + CC(=O)Nc1cccc(-n2c(=O)n(C3CC3)c(=O)c3c(Nc4ccc(I)cc4F)n(C)c(=O)c(C)c32)c1 [Trametinib] (partner 0.02 µM)
Summary of the method: as §1

| Cell Line | relative viability (Tipifarnib + Crizotinib; first compound 0.01 µM) | relative viability (Tipifarnib + Crizotinib; first compound 0.03162 µM) | relative viability (Tipifarnib + Crizotinib; first compound 0.1 µM) | relative viability (Tipifarnib + Crizotinib; first compound 0.3162 µM) | relative viability (Tipifarnib + Crizotinib; first compound 1 µM) | relative viability (Tipifarnib + Phenformin; first compound 0.01 µM) | relative viability (Tipifarnib + Phenformin; first compound 0.03162 µM) | relative viability (Tipifarnib + Phenformin; first compound 0.1 µM) | relative viability (Tipifarnib + Phenformin; first compound 0.3162 µM) | relative viability (Tipifarnib + Phenformin; first compound 1 µM) | relative viability (Tipifarnib + OSI-027; first compound 0.01 µM) | relative viability (Tipifarnib + OSI-027; first compound 0.03162 µM) | relative viability (Tipifarnib + OSI-027; first compound 0.1 µM) | relative viability (Tipifarnib + OSI-027; first compound 0.3162 µM) | relative viability (Tipifarnib + OSI-027; first compound 1 µM) | relative viability (Tipifarnib + Trametinib; first compound 0.01 µM) | relative viability (Tipifarnib + Trametinib; first compound 0.03162 µM) | relative viability (Tipifarnib + Trametinib; first compound 0.1 µM) | relative viability (Tipifarnib + Trametinib; first compound 0.3162 µM) | relative viability (Tipifarnib + Trametinib; first compound 1 µM) |
| --- | --- | --- | --- | --- | --- | --- | --- | --- | --- | --- | --- | --- | --- | --- | --- | --- | --- | --- | --- | --- |
| 201T | 1.05 | 0.909 | 0.987 | 0.954 | 0.885 | 0.493 | 0.441 | 0.457 | 0.402 | 0.362 | 0.706 | 0.805 | 0.692 | 0.46 | 0.368 | 0.75 | 0.734 | 0.722 | 0.656 | 0.649 |
| A-427 | 1.01 | 0.866 | 0.782 | 0.732 | 0.844 | 0.31 | 0.272 | 0.319 | 0.227 | 0.226 | 0.406 | 0.316 | 0.365 | 0.361 | 0.254 | 0.872 | 0.758 | 0.633 | 0.654 | 0.549 |
| ABC-1 | 1.05 | – | 0.609 | 0.676 | 0.452 | 0.241 | – | 0.264 | 0.242 | 0.231 | 0.554 | – | 0.414 | 0.32 | 0.267 | – | – | – | – | – |
| BEN | 0.928 | 0.939 | 0.731 | 0.684 | 0.636 | 0.294 | 0.272 | 0.273 | 0.255 | 0.262 | 0.296 | 0.289 | 0.303 | 0.262 | 0.309 | 0.95 | 0.87 | 0.873 | 0.856 | 0.761 |
| CAL-12T | 0.567 | 0.387 | 0.334 | 0.173 | 0.228 | 0.533 | 0.414 | 0.379 | 0.378 | 0.231 | 0.565 | 0.358 | 0.37 | 0.272 | 0.232 | 0.359 | 0.289 | 0.234 | 0.222 | 0.177 |
| COR-L23 | 0.731 | 0.341 | 0.3 | 0.248 | 0.386 | 0.469 | 0.351 | 0.361 | 0.305 | 0.238 | 0.572 | 0.36 | 0.261 | 0.24 | 0.202 | 0.609 | 0.301 | 0.329 | 0.33 | 0.277 |
| COR-L 105 | 0.538 | 0.392 | 0.383 | 0.407 | 0.317 | 0.387 | 0.389 | 0.447 | 0.339 | 0.281 | 0.759 | 0.588 | 0.5 | 0.427 | 0.417 | 0.409 | 0.491 | 0.427 | 0.43 | 0.369 |
| Calu-6 | 0.694 | 0.566 | 0.452 | 0.434 | 0.344 | – | – | – | – | – | – | – | – | – | – | – | – | – | – | – |
| ChaGo-K-1 | 1.12 | 1.23 | 0.762 | 0.992 | 0.484 | 0.451 | 0.518 | 0.464 | 0.412 | 0.273 | 0.483 | 0.548 | 0.602 | 0.442 | 0.332 | 0.96 | 0.942 | 0.868 | 0.853 | 0.674 |
| EKVX | 0.932 | 0.936 | 0.733 | 0.618 | 0.581 | 0.238 | 0.214 | 0.229 | 0.211 | 0.173 | 0.728 | 0.7 | 0.699 | 0.516 | 0.39 | 0.261 | 0.35 | 0.244 | 0.298 | 0.264 |
| EMC-BAC-2 | 0.737 | 0.621 | 0.659 | 0.534 | 0.526 | 0.501 | 0.437 | 0.459 | 0.485 | 0.357 | 0.365 | 0.3 | 0.364 | 0.3 | 0.266 | 0.81 | 0.754 | 0.655 | 0.606 | 0.614 |
| EPLC-272H | 1 | 0.722 | 0.766 | 0.64 | 0.265 | 0.357 | 0.328 | 0.344 | 0.266 | 0.149 | 0.276 | 0.229 | 0.247 | 0.267 | 0.212 | 0.336 | 0.274 | 0.246 | 0.303 | 0.234 |
| H3255 | 0.834 | 0.9 | 0.708 | 0.519 | 0.543 | 0.376 | 0.436 | 0.395 | 0.344 | 0.353 | 0.757 | 0.704 | 0.61 | 0.471 | 0.438 | 0.674 | 0.576 | 0.542 | 0.458 | 0.471 |
| HARA | 1.07 | 0.917 | 1 | 1.01 | 1.02 | 0.52 | 0.494 | 0.501 | 0.412 | 0.156 | 0.618 | 0.408 | 0.298 | 0.137 | 0.147 | 0.784 | 0.77 | 0.635 | 0.588 | 0.508 |
| HCC-15 | 0.666 | 0.601 | 0.396 | 0.41 | 0.448 | 0.407 | 0.392 | 0.368 | 0.338 | 0.223 | 0.555 | 0.467 | 0.293 | 0.255 | 0.191 | 0.36 | 0.35 | 0.273 | 0.258 | 0.221 |
| HCC-44 | 0.749 | 0.698 | 0.599 | 0.576 | 0.568 | 0.214 | 0.107 | 0.166 | 0.18 | 0.109 | 0.736 | 0.423 | 0.383 | 0.329 | 0.289 | 0.992 | 0.942 | 0.908 | 0.781 | 0.891 |
| HCC-78 | 0.321 | 0.357 | 0.303 | 0.29 | 0.266 | 0.699 | 0.756 | 0.611 | 0.558 | 0.423 | 0.325 | 0.376 | 0.354 | 0.373 | 0.308 | 0.966 | 0.766 | 0.647 | 0.623 | 0.664 |
